Measured values: article PMC11944670, “Reshaping [^99mTc]Tc-DT11 to DT14D Tagged with Trivalent Radiometals for NTS1R-Positive Cancer Theranostics” (Pharmaceutics, 2025)
Residues, ends and D or L forms follow the SMILES beside them. *: point of attachment. DOTA = O=C(O)CN1CCN(CC(=O)O)CCN(CC(=O)*)CCN(CC(=O)O)CC1; X1 = Cc1ccc(CCCC(=O)NCCOCCOCCOCCOCC(=O)*)cc1; βAla = NCCC(=O)O

Experiments:
in vivo = test: in vivo; parameters: species or system mice; conditions: male, SCID, mouse, iv, total radioactivity; for tissue uptake at 24 h: Biodistribution
Method: (§1) The distribution of [^67Ga]Ga/[^111In]In/[^177Lu]Lu-DT14D was investigated in male severe combined immunodeficiency (SCID) mice (49 mice in total, 6 weeks of age on arrival date, 22 ± 4 g, NCSR “Demokritos” Animal House, Athens, Greece) bearing NTS1R-positive AsPC-1 xenografts in their flanks. For xenograft induction, suspensions of freshly harvested AsPC-1 cells (5 × 10^6 cells in 150 µL sterile PBS) were subcutaneously injected into the mice’s flanks. The animals were kept under aseptic conditions and 4 weeks later developed well palpable masses at the inoculation sites (100 ± 50 mg) and biodistribution was conducted. On the day of the experiment, the animals received a bolus (100 μL, in vehicle: saline/EtOH 9/1 v/v) containing the radioligand via the tail vein. The following groups of four animals per time point, per treatment, were included per radioligand (the 4 h block groups comprised 3 animals instead) including the respective (radio)ligand amounts injected: i. 78–91 kBq [^67Ga]Ga-DT14D corresponding to 7–17 pmol DT14D at 1 and 4 h pi plus 4 h block (coinjection with 100 µg NT); ii. 74–92 kBq [^111In]In-DT14D corresponding to 20–25 pmol at 4 h (controls), 4 h pi (Entresto®; animals receiving a slurry of 12 mg/200 µL Entresto® oral gavage 30 min in advance) and 4 h block (coinjection with 100 µg NT); 24 h pi (including both controls and Entresto® mice groups); and iii. 730 kBq [^177Lu]Lu-DT14D corresponding to 40 pmol DT14D at 4, 24, 48, and 72 h pi plus 4 h block (co-injection with 100 µg NT). The animals were euthanized at predetermined time intervals, dissected and blood samples, organs of interest, and tumors were collected, weighed, and counted in the gamma counter. Biodistribution data were calculated as percent of the injected activity per gram tissue (%IA/g) with the aid of suitable standards of the administered activity. Results as the mean %IA/g values ± sd were obtained and statistical analysis was performed with PRISM^TM GraphPad—10.2 Software (San Diego, CA/USA), applying 2-way ANOVA with Tukey’s post hoc analysis, or, in the case of two variables, Šídák’s multiple comparisons test was adopted; differences with p < 0.05 were considered as statistically significant.

[1] = test system: NTS1R-positive AsPC-1 xenografts; test: in vivo; parameters: species or system mice; conditions: male, SCID, mouse, iv
Method: as §1

| SMILES | Biodistribution, Blood ([1]; 4 h) | Biodistribution, Femur ([1]; 4 h) | Biodistribution, Heart ([1]; 4 h) | Biodistribution, Intestines ([1]; 4 h) | Biodistribution, Kidneys ([1]; 4 h) | Biodistribution, Liver ([1]; 4 h) | Biodistribution, Lungs ([1]; 4 h) | Biodistribution, Muscle ([1]; 4 h) | Biodistribution, Pancreas ([1]; 4 h) | Biodistribution, Spleen ([1]; 4 h) | Tumor/Blood ratio ([1]; 4 h) | Tumor/Heart ratio ([1]; 4 h) | Tumor/Intestines ratio ([1]; 4 h) | Tumor/Liver ratio ([1]; 4 h) | Tumor/Muscle ratio ([1]; 4 h) | Tumor/Pancreas ratio ([1]; 4 h) | Tumor/Spleen ratio ([1]; 4 h) | Biodistribution, Stomach ([1]; 4 h) | Biodistribution, Femur ([1]; 24 h) | Biodistribution, Intestines ([1]; 24 h) | further results |
| --- | --- | --- | --- | --- | --- | --- | --- | --- | --- | --- | --- | --- | --- | --- | --- | --- | --- | --- | --- | --- | --- |
| CC[C@H](C)[C@H](NC(=O)[C@H](Cc1ccc(O)cc1)NC(=O)[C@@H]1CCCN1C(=O)[C@H](CCCNC(=N)N)NC(=O)[C@H](CCCNC(=N)N)NC(=O)[C@H](CCCCNC(=O)COCCOCCOCCOCCNC(=O)CCCc1ccc(C)cc1)NC(=O)CCNC(=O)CCNC(=O)CCNC(=O)CN1CCN(CC(=O)O)CCN(CC(=O)O)CCN(CC(=O)O)CC1)C(=O)N[C@@H](CC(C)C)C(=O)O [[^111In]In-DT14D, metal not drawn] ({DOTA-βAla-βAla-βAla}-K(X1)RRPYIL-OH) |  |  |  |  |  |  |  |  |  |  |  |  |  |  |  |  |  |  |  |  | tissue uptake at 24 h (in vivo; AsPC-1 Tumor): 2.82 ± 0.68 %ID/g; tissue uptake at 24 h (in vivo; Kidneys): 1.7 ± 0.13 %ID/g; tissue to tissue ratio at 24 h (in vivo; Tumor/Intestines ratio): 4.07 ± 0.42; tissue to tissue ratio at 24 h (in vivo; Tumor/Kidneys ratio): 1.66 ± 0.4; tissue to tissue ratio at 24 h (in vivo; Tumor/Spleen ratio): 1.77 ± 0.32 |
| CC[C@H](C)[C@H](NC(=O)[C@H](Cc1ccc(O)cc1)NC(=O)[C@@H]1CCCN1C(=O)[C@H](CCCNC(=N)N)NC(=O)[C@H](CCCNC(=N)N)NC(=O)[C@H](CCCCNC(=O)COCCOCCOCCOCCNC(=O)CCCc1ccc(C)cc1)NC(=O)CCNC(=O)CCNC(=O)CCNC(=O)CN1CCN(CC(=O)O)CCN(CC(=O)O)CCN(CC(=O)O)CC1)C(=O)N[C@@H](CC(C)C)C(=O)O [[^67Ga]Ga-DT14D] [metal not drawn] ({DOTA-βAla-βAla-βAla}-K(X1)RRPYIL-OH) | 2.15 ± 0.40 %IA/g | 1.67 ± 0.36 %IA/g | 0.76 ± 0.12 %IA/g | 2.32 ± 0.39 %IA/g | 3.87 ± 0.96 %IA/g | 3.44 ± 0.15 %IA/g | 1.34 ± 0.20 %IA/g | 0.27 ± 0.04 %IA/g | 0.51 ± 0.08 %IA/g | 1.75 ± 0.67 %IA/g | 2.06 ± 0.21 | 5.75 ± 0.17 | 1.89 ± 0.06 | 1.28 ± 0.24 | 16.50 ± 2.36 | 8.69 ± 0.52 | 2.50 ± 0.23 |  |  |  |  |
| CC[C@H](C)[C@H](NC(=O)[C@H](Cc1ccc(O)cc1)NC(=O)[C@@H]1CCCN1C(=O)[C@H](CCCNC(=N)N)NC(=O)[C@H](CCCNC(=N)N)NC(=O)[C@H](CCCCNC(=O)COCCOCCOCCOCCNC(=O)CCCc1ccc(C)cc1)NC(=O)CCNC(=O)CCNC(=O)CCNC(=O)CN1CCN(CC(=O)O)CCN(CC(=O)O)CCN(CC(=O)O)CC1)C(=O)N[C@@H](CC(C)C)C(=O)O [[^111In]In-DT14D] [metal not drawn] ({DOTA-βAla-βAla-βAla}-K(X1)RRPYIL-OH) | 0.66 ± 0.19 %IA/g | 0.50 ± 0.06 %IA/g | 0.28 ± 0.06 %IA/g | 1.34 ± 0.06 %IA/g |  | 0.45 ± 0.04 %IA/g | 0.79 ± 0.12 %IA/g | 0.13 ± 0.03 %IA/g | 0.24 ± 0.04 %IA/g | 0.84 ± 0.07 %IA/g |  |  |  |  |  |  |  | 0.39 ± 0.05 %IA/g | 1.35 ± 0.36 %IA/g | 0.69 ± 0.09 %IA/g | Biodistribution, Blood ([1]; 24 h): 0.46 ± 0.08 %IA/g; Biodistribution, Heart ([1]; 24 h): 0.62 ± 0.23 %IA/g; Biodistribution, Liver ([1]; 24 h): 0.33 ± 0.08 %IA/g; Biodistribution, Lungs ([1]; 24 h): 0.61 ± 0.09 %IA/g; Biodistribution, Muscle ([1]; 24 h): 0.40 ± 0.10 %IA/g; Biodistribution, Pancreas ([1]; 24 h): 0.63 ± 0.39 %IA/g; Biodistribution, Spleen ([1]; 24 h): 1.59 ± 0.14 %IA/g; Biodistribution, Stomach ([1]; 24 h): 0.27 ± 0.10 %IA/g; Tumor/Intestines ratio ([1]; 24 h): 3.16 ± 0.49; Tumor/Kidneys ratio ([1]; 24 h): 1.42 ± 0.25; Tumor/Spleen ratio ([1]; 24 h): 1.84 ± 0.15 |
| CC[C@H](C)[C@H](NC(=O)[C@H](Cc1ccc(O)cc1)NC(=O)[C@@H]1CCCN1C(=O)[C@H](CCCNC(=N)N)NC(=O)[C@H](CCCNC(=N)N)NC(=O)[C@H](CCCCNC(=O)COCCOCCOCCOCCNC(=O)CCCc1ccc(C)cc1)NC(=O)CCNC(=O)CCNC(=O)CCNC(=O)CN1CCN(CC(=O)O)CCN(CC(=O)O)CCN(CC(=O)O)CC1)C(=O)N[C@@H](CC(C)C)C(=O)O [[^177Lu]Lu-DT14D] [metal not drawn] ({DOTA-βAla-βAla-βAla}-K(X1)RRPYIL-OH) | 0.72 ± 0.19 %IA/g | 0.45 ± 0.06 %IA/g | 0.32 ± 0.09 %IA/g | 1.27 ± 0.14 %IA/g | 3.24 ± 0.20 %IA/g | 1.34 ± 0.14 %IA/g | 1.63 ± 0.86 %IA/g | 0.11 ± 0.02 %IA/g | 0.21 ± 0.03 %IA/g | 1.36 ± 0.37 %IA/g | 5.51± 1.56 | 12.36 ± 3.08 | 2.99 ± 0.57 | 2.83 ± 0.45 | 34.86 ± 6.98 | 18.16 ± 3.31 | 2.83 ± 0.35 | 0.33 ± 0.12 %IA/g | 0.34 ± 0.03 %IA/g | 0.45 ± 0.03 %IA/g | Tumor/Kidneys ratio ([1]; 4 h): 1.17 ± 0.15; Tumor/Lungs ratio ([1]; 4 h): 2.97 ± 1.75; Tumor/Stomach ratio ([1]; 4 h): 12.29 ± 3.81; Biodistribution, Liver ([1]; 24 h): 1.18 ± 0.18 %IA/g; Biodistribution, Lungs ([1]; 24 h): 0.17 ± 0.01 %IA/g; Biodistribution, Muscle ([1]; 24 h): 0.03 ± 0.00 %IA/g; Biodistribution, Spleen ([1]; 24 h): 1.06 ± 0.16 %IA/g; Tumor/Blood ratio ([1]; 24 h): 33.51 ± 2.94; Tumor/Heart ratio ([1]; 24 h): 25.00 ± 3.78; Tumor/Intestines ratio ([1]; 24 h): 3.95 ± 0.39; Tumor/Kidneys ratio ([1]; 24 h): 1.46 ± 0.33; Tumor/Liver ratio ([1]; 24 h): 1.54 ± 0.32; Tumor/Lungs ratio ([1]; 24 h): 9.32 ± 2.56; Tumor/Muscle ratio ([1]; 24 h): 58.07 ± 8.34; Tumor/Pancreas ratio ([1]; 24 h): 22.31 ± 1.64; Tumor/Spleen ratio ([1]; 24 h): 1.70 ± 0.32; Tumor/Stomach ratio ([1]; 24 h): 31.97 ± 8.07 |
